Measured values as given in ChEMBL document CHEMBL1146821, “Pyridazines. Part 36: Synthesis and antiplatelet activity of 5-substituted-6-phenyl-3(2H)-pyridazinones” (Bioorg Med Chem Lett, 2004).

What was measured:
Type in all cases: functional
Homo sapiens [1] = species: Homo sapiens; experiment: The antiplatelet activity was tested by the turbidimetric method in washed human platelets using thrombin as agonist.
Homo sapiens [2] = species: Homo sapiens; experiment: The antiplatelet activity by the turbidimetric method in washed human platelets using thrombin as agonist; Precipitates under the conditions of the study.
Homo sapiens [3] = species: Homo sapiens; experiment: The antiplatelet activity by the turbidimetric method in washed human platelets using thrombin as agonist; Promotes platelet aggregation.
Homo sapiens [4] = species: Homo sapiens; experiment: The antiplatelet activity by the turbidimetric method in washed human platelets using thrombin as agonist; NA is inactive

IC50 (Homo sapiens [1]) [µM]	SMILES	further results
> 1000	OCCCC#Cc1cc(O)nnc1-c1ccccc1	–
> 1000	OCC#Cc1cc(O)nnc1-c1ccccc1	–
635	Oc1cc(-c2ccco2)c(-c2ccccc2)nn1	–
> 1000	CCOC(C#Cc1cc(O)nnc1-c1ccccc1)OCC	–
> 1000	COCCOC(=O)/C=C/c1cc(O)nnc1-c1ccccc1	–
152	Cc1ccc(-c2cc(O)nnc2-c2ccccc2)cc1	–
–	Oc1cc(-c2ccccc2)c(-c2ccccc2)nn1	IC50 (Homo sapiens [2]): Precipitates under the conditions of the study
–	Oc1cc(Oc2ccccc2)c(-c2ccccc2)nn1	IC50 (Homo sapiens [3]): Promotes platelet aggregation
> 1000	N#C/C=C/c1cc(=O)[nH]nc1-c1ccccc1	–
500	C#Cc1cc(O)nnc1-c1ccccc1	–
> 1000	COC(=O)/C=C/c1cc(O)nnc1-c1ccccc1	–
15	Oc1cc(Sc2ccccc2)c(-c2ccccc2)nn1	–
> 2000	OCCC#Cc1cc(O)nnc1-c1ccccc1	–
–	Oc1cc(-c2ccc(Cl)cc2)c(-c2ccccc2)nn1	IC50 (Homo sapiens [2]): Precipitates under the conditions of the study
–	CCOC(=O)/C=C/c1cc(=O)[nH]nc1-c1ccccc1	IC50 (Homo sapiens [4]): Not Active
25	O=C(/C=C/c1cc(=O)[nH]nc1-c1ccccc1)c1ccccc1	–
45	COC(=O)C(=Cc1cc(=O)[nH]nc1-c1ccccc1)C(=O)OC	–
20	CCOC(=O)C(=Cc1cc(=O)[nH]nc1-c1ccccc1)C(=O)OCC	–
–	O=c1cc(/C=C/c2ccccc2)c(-c2ccccc2)n[nH]1	IC50 (Homo sapiens [4]): Not Active
–	O=Cc1ccc(-c2cc(O)nnc2-c2ccccc2)cc1	IC50 (Homo sapiens [2]): Precipitates under the conditions of the study
500	O=C1C(CC[S+]([O-])c2ccccc2)C(=O)N(c2ccccc2)N1c1ccccc1 (stereo unspecified) [SULFINPYRAZONE]	–
